Experimental data as given in patent publication US8722703B2, “Fused amino pyridines for the treatment of brain tumors” (Curis, Inc., priority 2009, dated 2014).
Where two headings read alike, the source gives them in different places.

What was measured:
[1] = system: cancer derived HSP90 complex (H1975 NSCLC cell extracts); test: Fluorescence polarization geldanamycin competition binding with H1975 cell extract
H1993 NSCLC cells = test: Western blot of H1993 NSCLC cells after short-term treatment; type: cell-based; details: 1 μmol/L for 7 hours
[2] = system: H1975 orthotopic lung tumor; test: Efficacy study in the H1975 orthotopic lung tumor (NSCLC) model; type: in vivo, nude mice
Method: Dose-dependent efficacy study of Compound-15 in H1975 orthotopic lung tumor model (n=11): Mice were treated with Compound-15 (20, 40, 80, and 120 mg/kg) starting 4 day after tumor implantation.

[3] = PK profile of compound 15 after oral 30 mg/kg, single dose study; type: in vivo, mice; details: female, athymic nude (CD-1 nu/nu), mouse, plasma
Method: Female athymic nude (CD-1 nu/nu) were obtained from Charles River Laboratories (Wilmington, Mass.). They were housed in ventilated micro-isolator cages in Curis animal facility conditioned at temperature of 23±1° C., humidity of 50-70%, and a 12-hour light/12-hour dark cycle. The animals were fed with irradiated laboratory rodent diet ad libitum and provided with sterilized water. […] The cell pellet was diluted in HBSS (Hank's balanced salt solution) for implantation. […] The concentration for each compound in the solution was kept below 5 mg/ml. The maximum number of compound in one cassette was 6.30% Captisol (Cydex) was used for all formulation. At various time points (3 mice per time point) following compound administration, mice were euthanized with CO2, blood and tissues were collected. Blood was collected into tubes containing sodium heparin. The plasma was separated via centrifugation and stored at −40° C. before analysis. Tissues including tumors were homogenized in 0.8 ml water. An internal standard was added into the tissue homogenates. The homogenates were extracted with 1 ml ethyl acetate for three times. After evaporation, the residual was reconstituted in 0.1 ml acetonitrile for LC/MS/MS assay (Agilent HPLC 1100 Series).

[4] = system: MDA-MB-468 breast cancer orthotopic tumor; test: Efficacy study in the MDA-MB-468 orthotopic tumor model; type: in vivo, nude mice; details: Compound-15 120 mg/kg orally q2d, paclitaxel 12.5 mg/kg i.p. twice weekly
A549 subcutaneous tumors = test: Pharmacodynamic study in K-ras-mutated A549 subcutaneous tumors; type: in vivo; details: 160 mg/kg, 6- and 24-h time points
H1975 NSCLC cells = test: Western blot of H1975 NSCLC cells after short-term treatment; type: cell-based; details: 1 μmol/L for 7 hours
[5] = system: HSP90 client proteins in U87MG s.c. tumors; test: Pharmacodynamic Western blot analysis of U87MG s.c. tumors; type: in vivo, nude mice; details: U87MG s.c. tumors, 40, 80 or 160 mg/kg oral every other day, 21 days
[6] = system: H1975 (NSCLC) s.c. tumors; test: PD study after single oral dosing in H1975 (NSCLC) s.c. tumors; type: in vivo; details: single oral dosing 80 mg/kg, 8 h
[7] = system: Colo205 colorectal cancer s.c. tumor; test: Efficacy study in the Colo205 s.c. tumor model; type: in vivo, nude mice; details: 120 mg/kg orally q2d
H1975 NSCLC s.c. tumor = test: Efficacy study in the H1975 s.c. tumor model (160 mg/kg q2d); type: in vivo, nude mice; details: 160 mg/kg orally q2d, 3 wk
Method: H1975 NSCLC cells (5×10^6) were implanted s.c. into nude mice. Treatment with Compound-15 (160 mg/kg, orally, q2d) started when tumors reached an average volume of 160 mm^3.

H1975 intracranial tumor = test: Efficacy study in H1975 intracranial metastasis model; type: in vivo, nude mice; details: Compound-15 120 mg/kg orally once every two days, lapatinib 75 mg/kg orally twice a day, 4 wk
[8] = Mouse brain concentrations after oral 30 mg/Kg in nude mice with U87MG xenografts; type: in vivo
H1975 subcutaneous tumor = test: Efficacy study in the H1975 subcutaneous tumor model (80, 120, 160 mg/kg); type: in vivo, nude mice; details: H1975 s.c., 80, 120, or 160 mg/kg orally once every 2 days
Description: Cells (3.5×106) were implanted subcutaneously into nude mice.

[9] = system: A549 orthotopic lung tumor; test: Efficacy study in A549 orthotopic lung tumor model; type: in vivo, nude mice; details: Compound-15 120 mg/kg orally once every two days, erlotinib 50 mg/kg orally once a day, 4 wk
[10] = system: H1975 orthotopic lung tumors; test: Pharmacodynamic study in H1975 orthotopic lung tumors; type: in vivo; details: 160 mg/kg once
Description: Tumors were collected at various time points (n=2-3) and subjected to Western blot analysis.

[11] = system: cancer derived HSP90 complex (H1993 NSCLC cell extracts); test: Fluorescence polarization geldanamycin competition binding with H1993 cell extract
[12] = PK in mouse brain after i.v. and oral delivery, cassette study in HCT116 tumor-bearing mice; type: in vivo
A549 subcutaneous tumor = test: Efficacy study in A549 subcutaneous tumor model; type: in vivo, nude mice; details: A549 s.c., 160 mg/kg orally once every two days
[13] = system: HSP90 client proteins in H1975 subcutaneous tumors; test: Pharmacodynamic study in H1975 subcutaneous tumors, single dose; type: in vivo; details: single dose 160 mg/kg
[14] = then compound-free medium 0, 17 or 24 hours
[15] = female, athymic nude (CD-1 nu/nu), mouse, iv, i.v. delivery (Cassette Study), read-out: HSP90 Compounds in Mouse Brain
[16] = female, athymic nude (CD-1 nu/nu), mouse, oral delivery (10 mg/g Cassette Study), read-out: HSP90 Compounds in Mouse Brain

With CN(C)c1cc2c(cc1Sc1nc3c(N)nccc3n1CCNCC(C)(C)C)OCO2 [Compound 15, 2-(6-(dimethylamino)benzo[d][1,3]dioxol-5-ylthio)-1-(2-(neopentylamino)ethyl)-1H-imidazo[4,5-c]pyridin-4-amine] the IC50 [1] was 61.2 nM, the “downstream PI3K/AKT and RAF/ERK signaling (p-AKT/AKT, p-ERK/ERK levels)” value (H1993 NSCLC cells) was “suppressed” and the “levels of phosphorylated-MET and total MET” value (H1993 NSCLC cells) was “reduced”. For the same compound, the “phosphorylated and total EGFR, MET, AKT, and MAPK (ERK)” value (H1993 NSCLC cells; [14]) was “durably inhibited”, the “animal survival, dose dependence” value ([2]; 20, 40, 80, and 120 mg/kg, 5-wk dosing regimen) was “dose-dependently extended animal survival” and the animal survival ([2]; Compound-15 120 mg/kg orally once every two days, erlotinib 50 mg/kg orally once a day, 5 wk) was “significantly prolonged animal survival”. For the same compound, the AUC(0-inf) [3] was 10500 ng·h/mL, the Cmax [3] was 1380 ng/mL and the Tmax [3] was 2 h. For the same compound, the half-life [3] was 198 min, the AUC(0-t) ([3]; read-out: AUC0-24) was 10400 ng·h/mL and the tumor regression [4] was 3.4%. For the same compound, the “HER2 and key components of the PI3K/AKT and RAF/MEK/ERK signaling pathways (Western blot)” value (A549 subcutaneous tumors) was “Potent inhibition”, the “HSP70 (Western blot)” value (A549 subcutaneous tumors) was “concurrent induction” and the “downstream PI3K/AKT and RAF/ERK signaling (p-AKT/AKT, p-ERK/ERK levels)” value (H1975 NSCLC cells) was “suppressed”. The “levels of phosphorylated-MET and total MET” value (H1975 NSCLC cells) was “reduced”, the “phosphorylated and total EGFR, MET, AKT, and MAPK (ERK)” value (H1975 NSCLC cells; [14]) was “durably inhibited” and the “HSP90 client proteins in tumors (Western blot)” value [5] was “dose-dependent inhibition”. For the same compound, the “EGFR and signaling molecules in tumors (Western blot)” value [6] was “inhibited”, the T/C [7] was 14.2% and the T/C (H1975 NSCLC s.c. tumor) was 15.4%. For the same compound, the animal survival (H1975 intracranial tumor) was “significantly prolonged animal survival”, the concentration at 0 hr ([8]; female, athymic nude (CD-1 nu/nu), mouse, brain, oral (30 mg/Kg) delivery, U87MG xenografts, Time 0 hr, read-out: HSP90 Compounds in Mouse Brain) was 0 ng/g and the concentration at 0.5 hr ([8]; female, athymic nude (CD-1 nu/nu), mouse, brain, oral (30 mg/Kg) delivery, U87MG xenografts, Time 0.5 hr, read-out: HSP90 Compounds in Mouse Brain) was 66.4 ng/g. For the same compound, the concentration at 1 hr ([8]; female, athymic nude (CD-1 nu/nu), mouse, brain, oral (30 mg/Kg) delivery, U87MG xenografts, Time 1 hr, read-out: HSP90 Compounds in Mouse Brain) was 124 ng/g, the concentration at 3 hr ([8]; female, athymic nude (CD-1 nu/nu), mouse, brain, oral (30 mg/Kg) delivery, U87MG xenografts, Time 3 hr, read-out: HSP90 Compounds in Mouse Brain) was 257 ng/g and the concentration at 6 hr ([8]; female, athymic nude (CD-1 nu/nu), mouse, brain, oral (30 mg/Kg) delivery, U87MG xenografts, Time 6 hr, read-out: HSP90 Compounds in Mouse Brain) was 77.8 ng/g. For the same compound, the concentration at 24 hr ([8]; female, athymic nude (CD-1 nu/nu), mouse, brain, oral (30 mg/Kg) delivery, U87MG xenografts, Time 24 hr, read-out: HSP90 Compounds in Mouse Brain) was 3.2 ng/g, the “crossing (into brain)” value ([8]; nude mice with U87MG xenografts, oral 30 mg/Kg) was “superior results” and the “AUC in mouse brain” value ([8]; oral (30 mg/Kg) delivery, U87MG xenografts) was 1692.2 ng·h/g. For the same compound, the body weight (H1975 subcutaneous tumor) was “without significant loss”, the tumor growth (H1975 subcutaneous tumor) was “Dose-dependent inhibition” and the animal survival [9] was “significantly prolonged animal survival”. For the same compound, the “HSP70, apoptosis and phosphorylated-AKT in tumors (Western blot)” value [10] was “Sustained induction of HSP70 and apoptosis and inhibition of oncoprotein phosphorylated-AKT”, the IC50 [11] was 74.2 nM and the concentration at 0.08333 hr ([12]; female, athymic nude (CD-1 nu/nu), mouse, iv, i.v. delivery (Cassette Study), Time 0.08333 hr, read-out: HSP90 Compounds in Mouse Brain) was 3240 ng/g. The concentration at 0.5 hr [12, 15] was 1450 ng/g, the concentration at 2 hr [12, 15] was 773 ng/g and the concentration at 6 hr [12, 15] was 177 ng/g. It also gave a concentration at 24 hr [12, 15] of 27 ng/g, a concentration at 48 hr [12, 15] of 4.8 ng/g and a concentration at 0.5 hr [12, 16] of 61.2 ng/g. The concentration at 2 hr [12, 16] was 256 ng/g, the concentration at 6 hr [12, 16] was 218 ng/g and the concentration at 24 hr [12, 16] was 5.9 ng/g. The concentration at 48 hr [12, 16] was 0.7 ng/g, the “AUC i.v. in the brain” value ([12]; i.v.) was 6761.3 ng·h/g and the “AUC p.o. in the brain” value ([12]; p.o.) was 3293.9 ng·h/g. The “F (%) in the brain” value ([12]; p.o. vs i.v.) was 24.4%, the T/C (A549 subcutaneous tumor) was 9.5% and the tumor growth (A549 subcutaneous tumor) was “Tumor stasis”. The “HSP70, a marker of HSP90 inhibition” value [13] was “concurrent induction”, the “HSP90 client proteins in tumors” value [13] was “potent inhibition” and the “mutant EGFR” value [13] was “induced degradation”. For the same compound, the “apoptosis (PARP and caspase-3 cleavages)” value ([13]; 6- and 24-hour time points) was “robustly induced apoptosis”.
